Test results as given in patent publication US20130296228A1, “EFFLUX PUMP INHIBITORS” (priority 2010, published 2013).
Read-outs that look alike come from different tables or passages of the source.

Legend:
P. aeruginosa 23587 [1] = test: Diameter of zone of inhibition of antimicrobial agents with or without efflux pump inhibitor; type: cell-based
From the text: Since RND efflux pumps operate by utilizing energy in […], metabolic inhibitor, sodium azide brings about MDR RND pump inhibition by causing energy deprivation.

P. aeruginosa 2301 [2] = test: as above; type: cell-based; settings: for Diameter of zone of inhibition: P. aeruginosa 2301
MDR P. aeruginosa = test: Enhanced killing: viable count over time; type: cell-based; settings: for killing effect of the agent individually: quinolone arginine salt 8 μg/ml, ceftazidime 8 and 16 μg/ml
Method: Table 4 results of efflux pump inhibition based cidal synergy between S-(−)-9-Fluoro-8-(4-hydroxy-piperidin-1-yl)-5-methyl-6,7-dihydro-1-oxo-1H,5H-benzo[i,j]quinolizine-2-carboxylic acid L-arginine salt tetrahydrate nd ceftazidime. Potent cidal synergy is observed between S-(−)-9-Fluoro-8-(4-hydroxy-piperidin-1-yl)-5-methyl-6,7-dihydro-1-oxo-1H,5H-benzo[i,j]quinolizine-2-carboxylic acid L-arginine salt tetrahydrate (concentration, 8 μg/ml) and ceftazidime (concentration, 8 and 16 μg/ml). These concentrations are at least 4 times lower than their MIC. […] Thus the efflux pump inhibition based synergy is not just growth inhibitory but also, most importantly, imparts extensive killing of the pathogen.

[3] = system: MDR clinical isolate of P. aeruginosa 2301; test: Systemic infection in mice, % survival; type: in vivo; settings: for % survival: mice; for protection of infected animals, agent individually: quinolone arginine salt 50 mg/kg, ceftazidime 300 mg/kg
P. aeruginosa 23587 [4] = test: Survival of high density inoculation in MHA medium; type: cell-based; settings: high density inoculation 2-5 × 10^9 CFU/ml
[5] = system: highly resistant P. aeruginosa strains; test: MIC; type: cell-based; settings: highly resistant P. aeruginosa strains used for infecting animals
P. aeruginosa 2301 [6] = test: Survival of high density inoculation in MHA medium; type: cell-based; settings: high density inoculation 2-5 × 10^9 CFU/ml; 20 mcg/ml in MHA medium
From the text: In a most surprising manner, the combination of ceftazidime and azithromycin and tigecycline respectively brought about more than 7 log reduction in the bacterial count as compared to individual effects in highly resistant Pseudomonas strain. Moreover in a very unusual and surprising manner this tremendous bactericidal effect is taking place at concentrations much below than their individual inhibitory concentrations. […] It is also likely that ceftazidime interacts with outer membrane porins and acts as a porin modulator. Bacalum et al. have shown that ceftazidime binds to outer membrane porins with high affinity (Bacalum et al. Romanian. J. Biophys., 19, 105-116, 2009).

outer membrane porins = settings: Bacalum et al. 2009; cited from earlier work

In the case of C[C@H]1CCc2c(N3CCC(O)CC3)c(F)cc3c(=O)c(C(=O)O)cn1c23.N=C(N)NCCC[C@H](N)C(=O)O.O.O.O.O [S-(−)-9-Fluoro-8-(4-hydroxy-piperidin-1-yl)-5-methyl-6,7-dihydro-1-oxo-1H,5H-benzo[i,j]quinolizine-2-carboxylic acid L-arginine salt tetrahydrate], the “change of activity on addition of sodium azide” value (P. aeruginosa 23587 [1]) was “potentiated”, the “change of activity in the presence of cefepime and ceftazidime” value (P. aeruginosa 23587 [1]; Example 3) was “significant potentiation” and the “Diameter of zone of inhibition” value (P. aeruginosa 23587 [1]; Table 1, P. aeruginosa 23587, +PAN (20 μg/ml), 4 μg/well) was 30 m.m. The “Diameter of zone of inhibition” value (P. aeruginosa 23587 [1]; Table 1, P. aeruginosa 23587, +PAN (20 μg/ml), 8 μg/well) was 34 m.m, the “Diameter of zone of inhibition” value (P. aeruginosa 23587 [1]; Table 1, P. aeruginosa 23587, +PAN (20 μg/ml), 16 μg/well) was 35 m.m and the “Diameter of zone of inhibition” value (P. aeruginosa 23587 [1]; Table 1, P. aeruginosa 23587, Control, 4 μg/well) was “Nil”. The “Diameter of zone of inhibition” value (P. aeruginosa 23587 [1]; Table 1, P. aeruginosa 23587, Control, 8 μg/well) was 12 m.m, the “Diameter of zone of inhibition” value (P. aeruginosa 23587 [1]; Table 1, P. aeruginosa 23587, Control, 16 μg/well) was 15 m.m and the “Diameter of zone of inhibition” value (P. aeruginosa 23587 [1]; Table 2, P. aeruginosa (23587), +Reserpine (25 μg/ml), 8 μg/well) was “Nil”. The “Diameter of zone of inhibition” value (P. aeruginosa 23587 [1]; Table 2, P. aeruginosa (23587), +Reserpine (25 μg/ml), 16 μg/well) was 11 m.m, the “Diameter of zone of inhibition” value (P. aeruginosa 23587 [1]; Table 2, P. aeruginosa (23587), +Reserpine (25 μg/ml), 32 μg/well) was 15 m.m and the “Diameter of zone of inhibition” value (P. aeruginosa 23587 [1]; Table 2, P. aeruginosa (23587), +sodium azide (10 μg/ml), 8 μg/well) was 12 m.m. For the same molecule, the “Diameter of zone of inhibition” value (P. aeruginosa 23587 [1]; Table 2, P. aeruginosa (23587), +sodium azide (10 μg/ml), 16 μg/well) was 15 m.m, the “Diameter of zone of inhibition” value (P. aeruginosa 23587 [1]; Table 2, P. aeruginosa (23587), +sodium azide (10 μg/ml), 32 μg/well) was 20 m.m and the “Diameter of zone of inhibition” value (P. aeruginosa 23587 [1]; Table 2, P. aeruginosa (23587), Control, 8 μg/well) was “Nil”. The “Diameter of zone of inhibition” value (P. aeruginosa 23587 [1]; Table 2, P. aeruginosa (23587), Control, 16 μg/well) was 11 m.m, the “Diameter of zone of inhibition” value (P. aeruginosa 23587 [1]; Table 2, P. aeruginosa (23587), Control, 32 μg/well) was 15 m.m and the “Diameter of zone of inhibition” value (P. aeruginosa 23587 [1]; Table 3, P. aeruginosa 23587, +Cefepime (1 μg/ml), 8 μg/Well) was 12 m.m. The “Diameter of zone of inhibition” value (P. aeruginosa 23587 [1]; Table 3, P. aeruginosa 23587, +Cefepime (1 μg/ml), 16 μg/Well) was 18 m.m, the “Diameter of zone of inhibition” value (P. aeruginosa 23587 [1]; Table 3, P. aeruginosa 23587, +Cefepime (1 μg/ml), 32 μg/Well) was 24 m.m and the “Diameter of zone of inhibition” value (P. aeruginosa 23587 [1]; Table 3, P. aeruginosa 23587, +Ceftazidime (1 μg/ml), 8 μg/Well) was 20 m.m. The “Diameter of zone of inhibition” value (P. aeruginosa 23587 [1]; Table 3, P. aeruginosa 23587, +Ceftazidime (1 μg/ml), 16 μg/Well) was 25 m.m, the “Diameter of zone of inhibition” value (P. aeruginosa 23587 [1]; Table 3, P. aeruginosa 23587, +Ceftazidime (1 μg/ml), 32 μg/Well) was 33 m.m and the “Diameter of zone of inhibition” value (P. aeruginosa 23587 [1]; Table 3, P. aeruginosa 23587, Control, 8 μg/Well) was 9 m.m. For the same molecule, the “Diameter of zone of inhibition” value (P. aeruginosa 23587 [1]; Table 3, P. aeruginosa 23587, Control, 16 μg/Well) was 14.5 m.m, the “Diameter of zone of inhibition” value (P. aeruginosa 23587 [1]; Table 3, P. aeruginosa 23587, Control, 32 μg/Well) was 19.5 m.m and the “change of activity in the presence of PAN” value (P. aeruginosa 23587 [1]; clinical isolates P. aeruginosa 23587 and P. aeruginosa 2301) was “Synergistic enhancement”. For the same molecule, the “change of activity in the presence of cefepime and ceftazidime” value (P. aeruginosa 2301 [2]; Example 6) was “significant potentiation”, the “Diameter of zone of inhibition” value (P. aeruginosa 2301 [2]; Table 1, +PAN (20 μg/ml), 4 μg/well) was 25 m.m and the “Diameter of zone of inhibition” value (P. aeruginosa 2301 [2]; Table 1, +PAN (20 μg/ml), 8 μg/well) was 32 m.m. The “Diameter of zone of inhibition” value (P. aeruginosa 2301 [2]; Table 1, +PAN (20 μg/ml), 16 μg/well) was 38 m.m, the “Diameter of zone of inhibition” value (P. aeruginosa 2301 [2]; Table 1, Control, 4 μg/well) was 15.5 m.m and the “Diameter of zone of inhibition” value (P. aeruginosa 2301 [2]; Table 1, Control, 8 μg/well) was 20 m.m. For the same molecule, the “Diameter of zone of inhibition” value (P. aeruginosa 2301 [2]; Table 1, Control, 16 μg/well) was 23.5 m.m, the “Diameter of zone of inhibition” value (P. aeruginosa 2301 [2]; Table 6, +Cefepime (2 μg/ml), 8 μg/Well) was 12 m.m and the “Diameter of zone of inhibition” value (P. aeruginosa 2301 [2]; Table 6, +Cefepime (2 μg/ml), 16 μg/Well) was 18 m.m. For the same molecule, the “Diameter of zone of inhibition” value (P. aeruginosa 2301 [2]; Table 6, +Cefepime (2 μg/ml), 32 μg/Well) was 24 m.m, the “Diameter of zone of inhibition” value (P. aeruginosa 2301 [2]; Table 6, +Ceftazidime (0.5 μg/ml), 8 μg/Well) was 20 m.m and the “Diameter of zone of inhibition” value (P. aeruginosa 2301 [2]; Table 6, +Ceftazidime (0.5 μg/ml), 16 μg/Well) was 25 m.m. The “Diameter of zone of inhibition” value (P. aeruginosa 2301 [2]; Table 6, +Ceftazidime (0.5 μg/ml), 32 μg/Well) was 33 m.m, the “Diameter of zone of inhibition” value (P. aeruginosa 2301 [2]; Table 6, Control, 8 μg/Well) was 9 m.m and the “Diameter of zone of inhibition” value (P. aeruginosa 2301 [2]; Table 6, Control, 16 μg/Well) was 14.5 m.m. For the same molecule, the “Diameter of zone of inhibition” value (P. aeruginosa 2301 [2]; Table 6, Control, 32 μg/Well) was 19.5 m.m, the viable count (MDR P. aeruginosa; 8 μg/ml, 0 h) was 6.11 Log CFU/ ml and the viable count (MDR P. aeruginosa; 8 μg/ml, 24 h) was 8.64 Log CFU/ ml. For the same molecule, the viable count (MDR P. aeruginosa; 8 μg/ml, 48 h) was 9.4 Log CFU/ ml, the viable count (MDR P. aeruginosa; 16 μg/ml, 0 h) was 6.11 Log CFU/ ml and the viable count (MDR P. aeruginosa; 16 μg/ml, 24 h) was 4.30 Log CFU/ ml. For the same molecule, the viable count (MDR P. aeruginosa; 16 μg/ml, 48 h) was under 3.0 Log CFU/ ml, the “killing effect of the agent individually” value (MDR P. aeruginosa) was “ineffective” and the “% survival” value ([3]; Table 5, 50 mg/kg BID × 1 day, Subcutaneous) was 0%. The “% survival” value ([3]; Table 5, 75 mg/kg BID × 1 day, Subcutaneous) was 33.3%, the “% survival” value ([3]; Table 5, 100 mg/kg BID × 1 day, Subcutaneous) was 100% and the “protection of infected animals, agent individually” value [3] was “could not protect”. The “CFU/ml at 48 h” value (P. aeruginosa 23587 [4]; 32 mcg/ml in MHA medium) was >5 × 10^9 CFU/ml and the MIC [5] was 16 µg/mL.

In the case of CC(C)(O/N=C(\C(=O)N[C@@H]1C(=O)N2C(C(=O)[O-])=C(C[n+]3ccccc3)CS[C@H]12)c1csc(N)n1)C(=O)O [Ceftazidime, ceftazidime], the “inhibition of MDR RND efflux pumps, concluded from potentiation” value (P. aeruginosa 23587 [1]; clinical isolates of P. aeruginosa) was “inhibit RND pumps”, the viable count (MDR P. aeruginosa; 8 μg/ml, 0 h) was 6.11 Log CFU/ ml and the viable count (MDR P. aeruginosa; 8 μg/ml, 24 h) was 8.64 Log CFU/ ml. For the same molecule, the viable count (MDR P. aeruginosa; 8 μg/ml, 48 h) was 9.3 Log CFU/ ml, the viable count (MDR P. aeruginosa; 16 μg/ml, 0 h) was 6.11 Log CFU/ ml and the viable count (MDR P. aeruginosa; 16 μg/ml, 24 h) was 5.30 Log CFU/ ml. For the same molecule, the viable count (MDR P. aeruginosa; 16 μg/ml, 48 h) was 9.2 Log CFU/ ml, the “killing effect of the agent individually” value (MDR P. aeruginosa) was “ineffective” and the “% survival” value ([3]; Table 5, 300 mg/kg BID × 1 day, Subcutaneous) was 16.6%. The “% survival” value ([3]; Table 7, 100 mg/kg BID × 1 day, Oral) was 16.6%, the “% survival” value ([3]; Table 7, 200 mg/kg BID × 1 day, Oral) was 16.6% and the “protection of infected animals, agent individually” value [3] was “could not protect”. For the same molecule, the “CFU/ml at 48 h” value (P. aeruginosa 23587 [4]; 64 mcg/ml in MHA medium) was >5 × 10^9 CFU/ml, the “CFU/ml at 48 h” value (P. aeruginosa 2301 [6]) was >5 × 10^9 CFU/ml and the MIC ([5]; Pseudomonas aeruginosa, read-out: MIC) was over 32 µg/mL. For the same molecule, the “binding to outer membrane porins” value (outer membrane porins) was “high affinity”.
